Assay results as given in US20230322805A1, “NOVEL PYRIMIDODIAZEPINE DERIVATIVES OR USES THEREOF” (SPARK BIOPHARMA, INC., priority 2020, published 2023).

Tests used:
Type in all cases: binding
PDIA3 [1] = target: T1, PDIA3 (Homo sapiens, UniProt P30101); test: TS-FITGE thermal stability shift; design: endogenous in cells; host or cells: HEK293 BiFC-tau cells (TS-FITGE, CETSA, PEG-maleimide assay); conditions: 10 μM, 200 nM thapsigargin, 3 hours, HEK293 BiFC-tau cells
T1 sequence (P30101 25-505): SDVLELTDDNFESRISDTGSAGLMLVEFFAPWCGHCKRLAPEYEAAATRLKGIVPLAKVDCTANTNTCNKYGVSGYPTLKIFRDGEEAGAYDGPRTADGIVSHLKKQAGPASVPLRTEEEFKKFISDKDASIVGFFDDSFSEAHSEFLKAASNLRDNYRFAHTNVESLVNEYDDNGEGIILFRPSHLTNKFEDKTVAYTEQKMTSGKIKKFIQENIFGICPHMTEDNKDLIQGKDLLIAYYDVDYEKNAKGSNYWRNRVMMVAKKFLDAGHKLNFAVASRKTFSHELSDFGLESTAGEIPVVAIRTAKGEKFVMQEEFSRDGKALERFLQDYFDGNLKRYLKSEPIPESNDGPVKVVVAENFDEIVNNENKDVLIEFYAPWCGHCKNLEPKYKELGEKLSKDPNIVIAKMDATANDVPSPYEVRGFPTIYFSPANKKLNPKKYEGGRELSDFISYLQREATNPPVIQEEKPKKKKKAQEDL
Procedure: HEK293 BiFC-tau cells were treated with dimethylsulfoxide (DMSO, 0.1%) and a compound according to the present invention (10 μM) in the presence of thapsigargin (200 nM) for 3 hours. The cell suspension was heated at the indicated temperature range for 3 minutes and then at 25° C. for 3 minutes. The heated cells were washed with PBS and resuspended in lysis buffer A (0.4% NP-40 in PBS supplemented with protease inhibitor cocktail). For cell lysis, cell suspensions were freeze-thawed in liquid nitrogen three times. The cell lysate was washed by centrifugation at 20000 g, 4° C. for 20 minutes. Protein concentration of the soluble fraction was quantified by Pierce BCA protein assay. After precipitating 50 μg of protein with cold acetone, it was centrifuged at […] and 4° C. for 7 minutes. The residual pellet was resuspended in 10 μl of conjugation buffer (30 mM Tris-HCl at pH 8.6, 30 mM thiourea, 7 M urea and 4% w/v CHAPS). 1 μl of 0.4 mM Cy2-N-hydroxysuccinimide(Cy2-NHS) (for DMSO-treated group), Cy3-NHS (for SB1607-treated group) or Cy5-NHS (for SB1617-treated group) was mixed with the protein and incubated at 4° C. for 45 minutes. […] Protein spot locations and fluorescence signals were analyzed with DeCyder 2D software ver. […]

DNAJC3 = target: T2, DNAJC3 (Homo sapiens, UniProt Q13217); test: Surface plasmon resonance assay; conditions: various concentrations, PBS pH 7.3, 25° C.
T2 sequence (Q13217 32-504): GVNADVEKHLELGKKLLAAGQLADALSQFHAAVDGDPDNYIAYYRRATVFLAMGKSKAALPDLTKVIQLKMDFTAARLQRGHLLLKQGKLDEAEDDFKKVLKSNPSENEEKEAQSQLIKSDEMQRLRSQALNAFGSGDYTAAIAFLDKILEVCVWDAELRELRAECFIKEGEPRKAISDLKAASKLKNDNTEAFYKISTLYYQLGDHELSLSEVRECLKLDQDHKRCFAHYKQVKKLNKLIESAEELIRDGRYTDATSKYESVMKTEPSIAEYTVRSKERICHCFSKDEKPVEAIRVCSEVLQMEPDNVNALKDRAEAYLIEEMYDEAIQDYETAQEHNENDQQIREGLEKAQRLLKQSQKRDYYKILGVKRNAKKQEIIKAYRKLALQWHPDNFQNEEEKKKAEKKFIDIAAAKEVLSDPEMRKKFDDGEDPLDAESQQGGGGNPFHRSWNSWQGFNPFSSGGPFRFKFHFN
Procedure: (§1) Surface plasmon resonance (SPR) assays were performed using a Biacore T100 instrument (GE Healthcare). The recombinant PDIA3 or DNAJC3 protein was immobilized on the CM5 sensor chip (GE Healthcare) through an amide bond by activating the carboxy group on the CM5 sensor chip with a 1:1 mixture of N-ethyl-N′-(3-dimethylaminopropyl)-carbodiimide and N-hydroxysuccinimide. Protein immobilization reactions were performed in PBS containing 0.005% Tween 20 at pH 4.7 and pH 5.0 for PDIA3 and DNAJC3, respectively. Binding between compounds and proteins was monitored by injecting compounds at various concentrations into PBS (pH 7.3) containing 3% DMSO and 0.005% Tween 20 at 25° C. Data were analyzed to calculate kinetic parameters by fitting sensor grams with a 1:1 binding model using Biacore T100 evaluation software (GE Healthcare).
(§2) Additionally, it was confirmed whether SB1617 directly binds to PDIA3 and DNAJC3 through surface plasmon resonance (SPR) of Examples 1-11.

PDIA3 [2] = target: T1, PDIA3; test: Surface plasmon resonance assay; conditions: various concentrations, PBS pH 7.3, 25° C.
Procedure: as §1, §2

CN(Cc1ccc(Cl)cc1)c1ncnc2c1[C@@H]1OC[C@H](CN2)N1S(=O)(=O)c1ccc([N+](=O)[O-])cc1 [Compound 117]
thermal stability of protein (TS-FITGE) (PDIA3 [1]): thermal stability of the protein was improved | direct binding (SPR) (DNAJC3): binds directly | direct binding (SPR) (PDIA3 [2]): binds directly
